Assay [1] deals with purified human Factor XIa (Homo sapiens (Human), UniProt P03951). Briefly: Factor XIa enzyme inhibition assay (chromogenic substrate S-2366).
Assay [2] has as its target purified human plasma kallikrein (Homo sapiens (Human), UniProt P03952). Briefly: Plasma kallikrein enzyme inhibition assay (chromogenic substrate S-2302). In kind it is biochemical. The settings on record: measured at 25° C. (no asterisk).
Experimental: The effectiveness of compounds of the present invention as inhibitors of the coagulation Factors XIa, VIIa, IXa, Xa, XIIa, plasma kallikrein or thrombin, can be determined using a relevant purified serine protease, respectively, and an appropriate synthetic substrate. The rate of hydrolysis of the chromogenic or fluorogenic substrate by the relevant serine protease was measured both in the absence and presence of compounds of the present invention. […] A decrease in the rate of absorbance or fluorescence change in the presence of inhibitor is indicative of enzyme inhibition. […] The results of this assay are expressed as the inhibitory constant, Ki.
Values of Ki were determined by allowing the protease to react with the substrate in the presence of the inhibitor.
The following relationships were used to calculate Ki values: (Vmax*S)/(Km+S); (vo−vs)/vs=I/(Ki(1+S/Km)) for a competitive inhibitor with one binding site; or vs/vo=A+((B−A)/1+((IC50/(I)n))); and Ki−IC50/((1+S/Km) for a competitive inhibitor where:
Where [3] appears, read: read-out: Factor XIa Ki, measured at 25° C.

SMILES strings stand for the structures. Structures can show the parent of a compound that is named as a salt. Where two headings read alike, the source gives them in different places. A value given as a limit tells only on which side of the number the result lay.

Chain of purified human Factor XIa (P03951 388-625): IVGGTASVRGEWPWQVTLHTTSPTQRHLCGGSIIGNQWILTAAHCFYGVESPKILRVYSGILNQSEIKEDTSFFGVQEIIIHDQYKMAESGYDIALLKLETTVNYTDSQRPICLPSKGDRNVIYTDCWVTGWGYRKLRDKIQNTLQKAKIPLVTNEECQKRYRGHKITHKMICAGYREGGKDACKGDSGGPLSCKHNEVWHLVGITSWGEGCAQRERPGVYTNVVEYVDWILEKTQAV
Chain of purified human Factor XIa (P03951 19-387 partner): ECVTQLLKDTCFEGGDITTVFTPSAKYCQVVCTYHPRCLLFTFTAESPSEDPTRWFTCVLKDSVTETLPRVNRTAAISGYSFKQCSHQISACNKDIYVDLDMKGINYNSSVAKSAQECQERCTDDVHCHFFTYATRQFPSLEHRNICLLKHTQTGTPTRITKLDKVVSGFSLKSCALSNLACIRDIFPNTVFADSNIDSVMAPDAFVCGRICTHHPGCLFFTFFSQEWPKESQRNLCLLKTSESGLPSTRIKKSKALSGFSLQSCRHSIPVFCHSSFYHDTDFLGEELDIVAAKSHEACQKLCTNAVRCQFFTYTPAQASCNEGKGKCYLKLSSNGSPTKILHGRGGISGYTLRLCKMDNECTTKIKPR
Chain of purified human plasma kallikrein (P03952 391-638): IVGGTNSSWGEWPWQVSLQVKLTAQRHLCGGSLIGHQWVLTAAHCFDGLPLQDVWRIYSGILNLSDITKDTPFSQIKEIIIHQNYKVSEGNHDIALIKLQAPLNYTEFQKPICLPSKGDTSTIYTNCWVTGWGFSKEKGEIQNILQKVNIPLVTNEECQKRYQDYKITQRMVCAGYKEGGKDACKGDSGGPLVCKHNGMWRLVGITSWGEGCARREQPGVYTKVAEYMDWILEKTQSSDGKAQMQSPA
Chain of purified human plasma kallikrein (P03952 20-390 partner): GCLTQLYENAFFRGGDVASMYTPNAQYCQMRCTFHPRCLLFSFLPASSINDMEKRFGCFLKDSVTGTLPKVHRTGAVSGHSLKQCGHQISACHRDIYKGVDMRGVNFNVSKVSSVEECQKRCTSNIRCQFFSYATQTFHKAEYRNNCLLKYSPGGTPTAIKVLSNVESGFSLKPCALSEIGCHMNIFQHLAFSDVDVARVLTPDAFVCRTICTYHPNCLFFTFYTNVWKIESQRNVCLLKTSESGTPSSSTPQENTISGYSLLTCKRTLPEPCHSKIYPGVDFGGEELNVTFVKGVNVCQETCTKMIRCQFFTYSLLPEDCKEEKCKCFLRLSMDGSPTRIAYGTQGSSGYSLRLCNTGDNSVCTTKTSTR

For orientation: Ki means a dissociation constant, usually derived from enzyme kinetics or from competition with a known ligand. Consider `Nc1ncc(-c2cccc3c2CCN(C(=O)c2cn(-c4cccc(Cl)c4F)nn2)C3C(=O)Nc2ccc(C(=O)O)cc2)cn1` (stereo not drawn) [Example 30, 4-(5-(2-aminopyrimidin-5-yl)-2-(1-(3-chloro-2-fluorophenyl)-1H-1,2,3-triazole-4-carbonyl)-1,2,3,4-tetrahydroisoquinoline-1-carboxamido)benzoic acid, TFA salt], for which the values for the Ki in assay [1] (setting [3]) and in assay [2] were below 5 nM and 15.7 nM, respectively.

`COc1ncc(-c2cccc3c2CCN(C(=O)c2cn(-c4cccc(Cl)c4F)nn2)C3C(=O)Nc2ccc(C(=O)O)cc2)cn1` (stereo not drawn) [Example 31, 4-(2-(1-(3-chloro-2-fluorophenyl)-1H-1,2,3-triazole-4-carbonyl)-5-(2-methoxypyrimidin-5-yl)-1,2,3,4-tetrahydroisoquinoline-1-carboxamido)benzoic acid]: the Ki in assay [1] was below 5 nM; in assay [2], 19.9 nM.

As for `N#Cc1ncc(-c2cccc3c2CCN(C(=O)c2cn(-c4cccc(Cl)c4F)nn2)C3C(=O)Nc2ccc(C(=O)O)cc2)cn1` (stereo not drawn) [Example 32, 4-(2-(1-(3-chloro-2-fluorophenyl)-1H-1,2,3-triazole-4-carbonyl)-5-(2-cyanopyrimidin-5-yl)-1,2,3,4-tetrahydroisoquinoline-1-carboxamido)benzoic acid], the Ki is below 5 nM in assay [1] and 17.5 nM in assay [2].

Turning to `O=C(O)c1ccc(NC(=O)C2c3cccc(-c4cccnc4)c3CCN2C(=O)c2cn(-c3cccc(Cl)c3F)nn2)cc1` (stereo not drawn) [Example 33, 4-(2-(1-(3-chloro-2-fluorophenyl)-1H-1,2,3-triazole-4-carbonyl)-5-(pyridin-3-yl)-1,2,3,4-tetrahydroisoquinoline-1-carboxamido)benzoic acid, TFA salt], the Ki was below 5 nM in assay [1] (setting [3]) and 9.54 nM in assay [2].

In the case of `O=C(O)c1ccc(NC(=O)C2c3cccc(-c4cnc(O)nc4)c3CCN2C(=O)c2cn(-c3cccc(Cl)c3F)nn2)cc1` (stereo not drawn) [Example 34, 4-(2-(1-(3-chloro-2-fluorophenyl)-1H-1,2,3-triazole-4-carbonyl)-5-(2-hydroxypyrimidin-5-yl)-1,2,3,4-tetrahydroisoquinoline-1-carboxamido)benzoic acid], the Ki in assay [1] was below 5 nM; in assay [2], 0.46 nM.

For the compound `O=C(O)c1ccc(NC(=O)C2c3cccc(-c4cncc(F)c4)c3CCN2C(=O)c2cn(-c3cccc(Cl)c3F)nn2)cc1` (stereo not drawn) [Example 35, 4-(2-(1-(3-chloro-2-fluorophenyl)-1H-1,2,3-triazole-4-carbonyl)-5-(5-fluoropyridin-3-yl)-1.2,3,4-tetrahydroisoquinoline-1-carboxamido)benzoic acid, TFA salt], the Ki in assay [1] (setting [3]) is below 5 nM; in assay [2] it was 22.9 nM.

In the case of `COc1cncc(-c2cccc3c2CCN(C(=O)c2cn(-c4cccc(Cl)c4F)nn2)C3C(=O)Nc2ccc(C(=O)O)cc2)c1` (stereo not drawn) [Example 36, 4-(2-(1-(3-chloro-2-fluorophenyl)-1H-1,2,3-triazole-4-carbonyl)-5-(5-methoxypyridin-3-yl)-1,2,3,4-tetrahydroisoquinoline-1-carboxamido)benzoic acid, TFA salt], the results for the inhibition constant (Ki) in assay [1] (setting [3]) and in assay [2] were below 5 nM and 26.7 nM, respectively.

Take `CNC(=O)c1cncc(-c2cccc3c2CCN(C(=O)c2cn(-c4cccc(Cl)c4F)nn2)C3C(=O)Nc2ccc(C(=O)O)cc2)c1` (stereo not drawn) [Example 37, 4-(2-(1-(3-chloro-2-fluorophenyl)-1H-1,2,3-triazole-4-carbonyl)-5-(5-(methylcarbamoyl)pyridin-3-yl)-1,2,3,4-tetrahydroisoquinoline-1-carboxamido)benzoic acid, TFA salt]: the Ki was below 5 nM in assay [1] (setting [3]) and 12.9 nM in assay [2].

For the compound `Nc1ccc(-c2cccc3c2CCN(C(=O)c2cn(-c4cccc(Cl)c4F)nn2)C3C(=O)Nc2ccc(C(=O)O)cc2)cn1` (stereo not drawn) [Example 39, 4-(5-(6-aminopyridin-3-yl)-2-(1-(3-chloro-2-fluorophenyl)-1H-1,2,3-triazole-4-carbonyl)-1,2,3,4-tetrahydroisoquinoline-1-carboxamido)benzoic acid, bis-TFA salt], the values for the Ki in assay [1] (setting [3]) and in assay [2] were below 5 nM and 2.63 nM, respectively.

Turning to `O=C(O)c1ccc(NC(=O)C2c3cccc(-c4cn[nH]c4)c3CCN2C(=O)c2cn(-c3cccc(Cl)c3F)nn2)cc1` (stereo not drawn) [Example 41, 4-(2-(1-(3-chloro-2-fluorophenyl)-1H-1,2,3-triazole-4-carbonyl)-5-(1H-pyrazol-4-yl)-1,2,3,4-tetrahydroisoquinoline-1-carboxamido)benzoic acid], the Ki in assay [1] was below 5 nM; in assay [2], 7.68 nM.

As to `Cn1nccc1-c1cccc2c1CCN(C(=O)c1cn(-c3cccc(Cl)c3F)nn1)C2C(=O)Nc1ccc(C(=O)O)cc1` (stereo not drawn) [Example 42, 4-(2-(1-(3-chloro-2-fluorophenyl)-1H-1,2,3-triazole-4-carbonyl)-5-(1-methyl-1H-pyrazol-5-yl)-1,2,3,4-tetrahydroisoquinoline-1-carboxamido)benzoic acid], the Ki was below 5 nM in assay [1] and 13.1 nM in assay [2].

For the compound `Cn1ccc(-c2cccc3c2CCN(C(=O)c2cn(-c4cccc(Cl)c4F)nn2)C3C(=O)Nc2ccc(C(=O)O)cc2)n1` (stereo not drawn) [Example 43, 4-(2-(1-(3-chloro-2-fluorophenyl)-1H-1,2,3-triazole-4-carbonyl)-5-(1-methyl-1H-pyrazol-3-yl)-1,2,3,4-tetrahydroisoquinoline-1-carboxamido)benzoic acid], the Ki in assay [1] was below 5 nM; in assay [2], 16.2 nM.

With `CNC(=O)c1ccc(-c2cccc3c2CCN(C(=O)c2cn(-c4cccc(Cl)c4F)nn2)[C@@H]3C(=O)Nc2ccc(C(=O)O)cc2)cn1` [Example 44, (S)-4-(2-(1-(3-Chloro-2-fluorophenyl)-1H-1,2,3-triazole-4-carbonyl)-5-(6-(methylcarbamoyl)pyridin-3-yl)-1,2,3,4-tetrahydroisoquinoline-1-carboxamido)benzoic acid, TFA salt], the Ki was below 5 nM in assay [1] (setting [3]) and 3.28 nM in assay [2].

On to `CNC(=O)c1ccc(-c2cccc3c2CCN(C(=O)c2cn(-c4cccc(Cl)c4F)nn2)[C@H]3C(=O)Nc2ccc(C(=O)O)cc2)cn1` [Example 45, (R)-4-(2-(1-(3-Chloro-2-fluorophenyl)-1H-1,2,3-triazole-4-carbonyl)-5-(6-(methylcarbamoyl)pyridin-3-yl)-1,2,3,4-tetrahydroisoquinoline-1-carboxamido)benzoic acid, TFA salt], for which the figures for the Ki in assay [1] (setting [3]) and in assay [2] were 20.6 nM and 364 nM, respectively.

In the case of `CN(C)C1CCN(c2cccc3c2CCN(C(=O)c2cn(-c4cccc(Cl)c4F)nn2)[C@H]3C(=O)Nc2ccc(C(=O)O)cc2)CC1` [Example 48, (R)-4-(2-(1-(3-chloro-2-fluorophenyl)-1H-1,2,3-triazole-4-carbonyl)-5-(4-(dimethylamino)piperidin-1-yl)-1,2,3,4-tetrahydroisoquinoline-1-carboxamido)benzoic acid, bis-TFA salt], the Ki stood at 89.6 nM in assay [1] and 452 nM in assay [2].

Consider `CN(C)C1CCN(c2cccc3c2CCN(C(=O)c2cnn(-c4cccc(Cl)c4F)c2)C3C(=O)Nc2ccc(C(=O)O)cc2)CC1` (stereo not drawn) [Example 50, 4-(2-(1-(3-chloro-2-fluorophenyl)-1H-pyrazole-4-carbonyl)-5-(4-(dimethylamino)piperidin-1-yl)-1,2,3,4-tetrahydroisoquinoline-1-carboxamido)benzoic acid, bis-TFA salt], for which the Ki is below 5 nM in assay [1] (setting [3]) and 4.94 nM in assay [2].

With `CN(C)C1CCN(c2cccc3c2CCN(C(=O)c2cn(-c4cccc(Cl)c4F)cn2)C3C(=O)Nc2ccc(C(=O)O)cc2)CC1` (stereo not drawn) [Example 53, 4-(2-(1-(3-chloro-2-fluorophenyl)-1H-imidazole-4-carbonyl)-5-(4-(dimethylamino)piperidin-1-yl)-1,2,3,4-tetrahydroisoquinoline-1-carboxamido)benzoic acid, bis-TFA salt], the Ki in assay [1] (setting [3]) is below 5 nM; in assay [2] it was 1.21 nM.

On to `CN(C)C(=O)C1CCN(c2cccc3c2CCN(C(=O)c2cn(-c4cccc(Cl)c4F)nn2)C3C(=O)Nc2ccc(C(=O)O)cc2)CC1` (stereo not drawn) [Example 56, 4-(2-(1-(3-chloro-2-fluorophenyl)-1H-1,2,3-triazole-4-carbonyl)-5-(4-(dimethylcarbamoyl)piperidin-1-yl)-1,2,3,4-tetrahydroisoquinoline-1-carboxamido)benzoic acid, TFA salt], for which the Ki in assay [1] (setting [3]) was below 5 nM; in assay [2], 5.6 nM.

As for `CN(C)C(=O)C1CCN(c2cccc3c2CCN(C(=O)c2cnn(-c4cccc(Cl)c4F)c2)C3C(=O)Nc2ccc(C(=O)O)cc2)CC1` (stereo not drawn) [Example 59, 4-(2-(1-(3-chloro-2-fluorophenyl)-1H-pyrazole-4-carbonyl)-5-(4-(dimethylcarbamoyl)piperidin-1-yl)-1,2,3,4-tetrahydroisoquinoline-1-carboxamido)benzoic acid, TFA salt], the Ki was below 5 nM in assay [1] (setting [3]) and 10.1 nM in assay [2].

`CC(C)c1nnc2n1CCN(c1cccc3c1CCN(C(=O)c1cn(-c4cccc(Cl)c4F)nn1)C3C(=O)Nc1ccc(C(=O)O)cc1)C2` (stereo not drawn) [Example 64, 4-(2-(1-(3-chloro-2-fluorophenyl)-1H-1,2,3-triazole-4-carbonyl)-5-(3-isopropyl-5,6-dihydro-[1,2,4]triazolo[4,3-a]pyrazin-7(8H)-yl)-1,2,3,4-tetrahydroisoquinoline-1-carboxamido)benzoic acid, TFA salt]: the Ki was below 5 nM in assay [1] (setting [3]) and 4.7 nM in assay [2].

As to `CC(C)c1nnc2n1CCN(c1cccc3c1CCN(C(=O)c1cn(-c4cccc(Cl)c4F)nn1)[C@H]3C(=O)Nc1ccc(C(=O)O)cc1)C2` [Example 65, (R)-4-(2-(1-(3-chloro-2-fluorophenyl)-1H-1,2,3-triazole-4-carbonyl)-5-(3-isopropyl-5,6-dihydro-[1,2,4]triazolo[4,3-a]pyrazin-7(8H)-yl)-1,2,3,4-tetrahydroisoquinoline-1-carboximido)benzoic acid, TFA salt], the Ki in assay [1] (setting [3]) was determined as 18.9 nM; in assay [2] it was 260 nM.

The values above are taken from patent US9738655B2, “Tetrahydroisoquinolines containing substituted azoles as factor XIa inhibitors” (BRISTOL-MYERS SQUIBB COMPANY, priority 2013, dated 2017).
